PubChem BioAssay (NCI)
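GI50: concentration for 50% inhibition of growth. At the TGI there is no net growth.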

Columns and labels:
Experiment in all cases: DTP human tumour cell line panel, 384-well format
786-0 renal = tested on: 786-0 renal
A498 renal = tested on: A498 renal
A549 NSCLC = tested on: A549 NSCLC
ACHN renal = tested on: ACHN renal
BT-549 breast = tested on: BT-549 breast
CAKI-1 renal = tested on: CAKI-1 renal
COLO 205 colon = tested on: COLO 205 colon
DU-145 prostate = tested on: DU-145 prostate
EKVX NSCLC = tested on: EKVX NSCLC
HCC-2998 colon = tested on: HCC-2998 colon
HCT-116 colon = tested on: HCT-116 colon
HCT-15 colon = tested on: HCT-15 colon
HL-60(TB) leukemia = tested on: HL-60(TB) leukemia
HOP-62 NSCLC = tested on: HOP-62 NSCLC
HOP-92 NSCLC = tested on: HOP-92 NSCLC
HS 578T breast = tested on: HS 578T breast
HT29 colon = tested on: HT29 colon
IGROV1 ovarian = tested on: IGROV1 ovarian
K-562 leukemia = tested on: K-562 leukemia
KM12 colon = tested on: KM12 colon
LOX IMVI melanoma = tested on: LOX IMVI melanoma
M14 melanoma = tested on: M14 melanoma
MALME-3M melanoma = tested on: MALME-3M melanoma
MCF7 breast = tested on: MCF7 breast
MDA-MB-231 breast = tested on: MDA-MB-231 breast
MDA-MB-435 melanoma = tested on: MDA-MB-435 melanoma
MDA-MB-468 breast = tested on: MDA-MB-468 breast
MOLT-4 leukemia = tested on: MOLT-4 leukemia
NCI-H226 lung = tested on: NCI-H226 lung
NCI-H23 lung = tested on: NCI-H23 lung
NCI-H322M lung = tested on: NCI-H322M lung
NCI-H460 NSCLC = tested on: NCI-H460 NSCLC
NCI-H522 lung = tested on: NCI-H522 lung
OVCAR-3 ovarian = tested on: OVCAR-3 ovarian
OVCAR-4 ovarian = tested on: OVCAR-4 ovarian
OVCAR-5 ovarian = tested on: OVCAR-5 ovarian
OVCAR-8 ovarian = tested on: OVCAR-8 ovarian
PC-3 prostate = tested on: PC-3 prostate
RXF 393 renal = tested on: RXF 393 renal
SF-268 CNS = tested on: SF-268 CNS
SF-295 CNS = tested on: SF-295 CNS
SF-539 CNS = tested on: SF-539 CNS
SK-MEL-2 melanoma = tested on: SK-MEL-2 melanoma
SK-MEL-28 melanoma = tested on: SK-MEL-28 melanoma
SK-OV-3 ovarian = tested on: SK-OV-3 ovarian
SN12C renal = tested on: SN12C renal
SNB-19 CNS = tested on: SNB-19 CNS
SNB-75 CNS = tested on: SNB-75 CNS
SW-620 colon = tested on: SW-620 colon
T-47D breast = tested on: T-47D breast
TK-10 renal = tested on: TK-10 renal
U251 glioblastoma = tested on: U251 glioblastoma
UACC-257 melanoma = tested on: UACC-257 melanoma
UACC-62 melanoma = tested on: UACC-62 melanoma
UO-31 renal = tested on: UO-31 renal

`O=C(CCCCCCC(=O)Nc1ccccc1)NO` showed a GI50 ([…]-0 renal) of 2.19 µM, a TGI (786-0 renal) of 10.4 µM and a GI50 (A498 renal) of 1.52 µM. It also gave a TGI (A498 renal) of 3.42 µM, a GI50 (A549 NSCLC) of 1.41 µM and a TGI (A549 NSCLC) of 4.16 µM. For the same compound, the GI50 (ACHN renal) was 1.33 µM, the TGI (ACHN renal) was 3.59 µM and the GI50 (BT-549 breast) was 2.49 µM. It also gave a TGI (BT-549 breast) of 7.02 µM, a GI50 (CAKI-1 renal) of 0.704 µM and a TGI (CAKI-1 renal) of 2.12 µM. For the same compound, the GI50 (COLO 205 colon) was 1.48 µM, the TGI (COLO 205 colon) was 2.93 µM and the GI50 (DU-145 prostate) was 0.729 µM. For the same compound, the TGI (DU-145 prostate) was 2.32 µM, the GI50 (EKVX NSCLC) was 3.8 µM and the TGI (EKVX NSCLC) was 28.5 µM. It also gave a GI50 (HCC-2998 colon) of 1.65 µM, a TGI (HCC-2998 colon) of 3.98 µM and a GI50 (HCT-116 colon) of 0.461 µM. It also gave a TGI (HCT-116 colon) of 1.73 µM, a GI50 (HCT-15 colon) of 2.53 µM and a TGI (HCT-15 colon) of 10.3 µM. For the same compound, the GI50 (HL-60(TB) leukemia) was 0.348 µM, the TGI (HL-60(TB) leukemia) was 0.733 µM and the GI50 (HOP-62 NSCLC) was 1.2 µM. The TGI (HOP-62 NSCLC) was 4.99 µM, the GI50 (HOP-92 NSCLC) was 1.61 µM and the TGI (HOP-92 NSCLC) was 3.98 µM. The GI50 (HS 578T breast) was 0.736 µM, the TGI (HS 578T breast) was 2.23 µM and the GI50 (HT29 colon) was 1.37 µM. For the same compound, the TGI (HT29 colon) was 3.12 µM, the GI50 (IGROV1 ovarian) was 0.886 µM and the TGI (IGROV1 ovarian) was 2.35 µM. It also gave a GI50 (K-562 leukemia) of 0.408 µM, a TGI (K-562 leukemia) of 1.49 µM and a GI50 (KM12 colon) of 0.329 µM. For the same compound, the TGI (KM12 colon) was 10.7 µM, the GI50 (LOX IMVI melanoma) was 1.45 µM and the TGI (LOX IMVI melanoma) was 2.79 µM. It also gave a GI50 (M14 melanoma) of 1.49 µM, a TGI (M14 melanoma) of 7.78 µM and a GI50 (MALME-3M melanoma) of 0.4 µM. For the same compound, the TGI (MALME-3M melanoma) was 1.46 µM, the GI50 (MCF7 breast) was 1.02 µM and the TGI (MCF7 breast) was 2.49 µM. It also gave a GI50 (MDA-MB-231 breast) of 1.09 µM, a TGI (MDA-MB-231 breast) of 2.91 µM and a GI50 (MDA-MB-435 melanoma) of 1.54 µM. The TGI (MDA-MB-435 melanoma) was 3.39 µM, the GI50 (MDA-MB-468 breast) was 0.365 µM and the TGI (MDA-MB-468 breast) was 1.09 µM. The GI50 (MOLT-4 leukemia) was 0.19 µM, the TGI (MOLT-4 leukemia) was 0.444 µM and the GI50 (NCI-H226 lung) was 3.93 µM. It also gave a TGI (NCI-H226 lung) of 16.8 µM, a GI50 (NCI-H23 lung) of 1.37 µM and a TGI (NCI-H23 lung) of 3.99 µM. For the same compound, the GI50 (NCI-H322M lung) was 1.51 µM, the TGI (NCI-H322M lung) was 5.81 µM and the GI50 (NCI-H460 NSCLC) was 0.876 µM. The TGI (NCI-H460 NSCLC) was 4.81 µM, the GI50 (NCI-H522 lung) was 0.431 µM and the TGI (NCI-H522 lung) was 1.78 µM. For the same compound, the GI50 (OVCAR-3 ovarian) was 1.57 µM, the TGI (OVCAR-3 ovarian) was 4.24 µM and the GI50 (OVCAR-4 ovarian) was 3.15 µM. The TGI (OVCAR-4 ovarian) was 8.55 µM, the GI50 (OVCAR-5 ovarian) was 0.853 µM and the TGI (OVCAR-5 ovarian) was 3.05 µM. The GI50 (OVCAR-8 ovarian) was 0.486 µM, the TGI (OVCAR-8 ovarian) was 2.4 µM and the GI50 (PC-3 prostate) was 1.48 µM. The TGI (PC-3 prostate) was 3.93 µM, the GI50 (RXF 393 renal) was 0.471 µM and the TGI (RXF 393 renal) was 1.41 µM. For the same compound, the GI50 (SF-268 CNS) was 1.25 µM, the TGI (SF-268 CNS) was 2.81 µM and the GI50 (SF-295 CNS) was 1.81 µM. The TGI (SF-295 CNS) was 6.07 µM, the GI50 (SF-539 CNS) was 2.04 µM and the TGI (SF-539 CNS) was 12.3 µM. It also gave a GI50 (SK-MEL-2 melanoma) of 0.369 µM, a TGI (SK-MEL-2 melanoma) of 0.982 µM and a GI50 (SK-MEL-28 melanoma) of 0.988 µM. For the same compound, the TGI (SK-MEL-28 melanoma) was 2.52 µM, the GI50 (SK-OV-3 ovarian) was 1.68 µM and the TGI (SK-OV-3 ovarian) was 4.15 µM. For the same compound, the GI50 (SN12C renal) was 1.81 µM, the TGI (SN12C renal) was 4.22 µM and the GI50 (SNB-19 CNS) was 1.99 µM. The TGI (SNB-19 CNS) was 5.21 µM, the GI50 (SNB-75 CNS) was 0.399 µM and the TGI (SNB-75 CNS) was 2.63 µM. For the same compound, the GI50 (SW-620 colon) was 0.948 µM, the TGI (SW-620 colon) was 2.27 µM and the GI50 (T-47D breast) was 0.667 µM. It also gave a TGI (T-47D breast) of 2.35 µM, a GI50 (TK-10 renal) of 1.27 µM and a TGI (TK-10 renal) of 4.85 µM. The GI50 (U251 glioblastoma) was 1.3 µM, the TGI (U251 glioblastoma) was 2.86 µM and the GI50 (UACC-257 melanoma) was 0.626 µM. For the same compound, the TGI (UACC-257 melanoma) was 2.45 µM, the GI50 (UACC-62 melanoma) was 0.467 µM and the TGI (UACC-62 melanoma) was 1.57 µM. For the same compound, the GI50 (UO-31 renal) was 2.15 µM and the TGI (UO-31 renal) was 9.08 µM.
